{"source": "ChEMBL document CHEMBL3046695", "about": "“Structure-antifeedant activity relationship of clerodane diterpenoids. Comparative study with withanolides and azadirachtin” (2000)", "data": [{"test_system": "Tenebrio molitor", "assay": "Antifeedant activity against third-instar larvae Tenebrio molitor in compound treated carrot slices assessed as feeding inhibition at 100 ppm", "assay_type": "functional", "conditions": "in Daucus carota", "units": {"inhibition at 100 ppm": "%"}, "values": [{"compound": "CC(=O)OC[C@@]12[C@@H](OC(C)=O)C[C@@H](C)[C@]3(C[C@H](c4ccoc4)OC3=O)[C@H]1CC[C@H](OC(C)=O)[C@]21CO1", "inhibition at 100 ppm": 30.6}, {"compound": "C/C=C(\\C)C(=O)O[C@H]1C[C@@H](OC(C)=O)[C@@]2(C(=O)OC)CO[C@H]3[C@@H](O)[C@@](C)([C@]45O[C@@]4(C)[C@@H]4C[C@H]5O[C@@H]5OC=C[C@@]54O)[C@H]4[C@]1(CO[C@]4(O)C(=O)OC)[C@@H]32", "note": "[AZADIRACHTIN A]", "inhibition at 100 ppm": 29.6}, {"compound": "CC(=O)O[C@H](C[C@@]1(C)[C@H](C)CC[C@]2(C)[C@H]1CCC[C@@]21CO1)/C(=C/CO)CO", "inhibition at 100 ppm": 51.9}, {"compound": "C[C@@H]1CC[C@@]23COC(=O)C2=CCC[C@H]3[C@@]1(C)CCc1ccoc1", "inhibition at 100 ppm": 31}, {"compound": "CC(=O)OC[C@@]12[C@@H](OC(C)=O)C[C@@H](C)[C@]3(C[C@H](c4ccoc4)OC3=O)[C@H]1CCC[C@]21CO1", "note": "[MONTANIN C]", "inhibition at 100 ppm": 25}, {"compound": "C[C@]12C[C@H](c3ccoc3)OC(=O)[C@@H]1CC[C@@]13COC(=O)C1=CCC[C@H]32", "inhibition at 100 ppm": 22.6}, {"compound": "CC1=C(C)C(=O)OC(C2CO[C@@]3(O)C[C@H]4[C@@H](C[C@@H](O)[C@@]5(O)CC=CC(=O)[C@]45C)[C@@H]4CC[C@]2(O)C43)C1", "note": "(stereo not given in full)", "inhibition at 100 ppm": 31.6}, {"compound": "COC1C=C([C@H]2C[C@@]3(C(=O)O2)[C@H](C)C[C@H](OC(C)=O)[C@]2(COC(C)=O)[C@@H]3CCC[C@]23CO3)C(OC)O1", "note": "(stereo not given in full)", "inhibition at 100 ppm": 47.3}, {"compound": "CC1=C(C)[C@H]([C@H]2O[C@@]3(O)C[C@H]4[C@@H](C[C@H]5O[C@]56CC=CC(=O)[C@]46C)[C@@H]4CC[C@@](O)([C@@H]2C)[C@]43C)OC1=O", "note": "[TRECHONOLIDE A]", "inhibition at 100 ppm": 44.7}, {"compound": "C=C1CCC[C@H]2[C@@](C)(C/C=C(/CO)CCO)[C@H](C)CC[C@@]12C", "inhibition at 100 ppm": 57.3}, {"compound": "CC(=O)OC[C@@]12[C@@H](OC(C)=O)C[C@@H](C)[C@](C)(C[C@H](OC(C)=O)c3ccoc3)[C@@H]1CCC[C@]21CO1", "inhibition at 100 ppm": 31.4}, {"compound": "C[C@@H]1CC[C@@]2(CO)C(CO)=CCC[C@H]2[C@@]1(C)CCc1ccoc1", "inhibition at 100 ppm": 48.7}, {"compound": "CC(=O)OC[C@@]12[C@@H](OC(C)=O)C[C@@H](C)[C@]3(C[C@H](c4ccoc4)OC3=O)[C@H]1CCCC2(O)O", "inhibition at 100 ppm": 45}, {"compound": "C[C@]12C[C@H](c3ccoc3)OC(=O)[C@@H]1[C@H](O)C[C@@]13COC(=O)C1=CCC[C@H]32", "inhibition at 100 ppm": 26.6}, {"compound": "C[C@H](c1ccc2c(c1)CC[C@H]1[C@H]2C[C@@H]2O[C@@]23CC=CC(=O)[C@]13C)[C@@H]1C[C@@]2(C)O[C@@]2(C)[C@@H](O)O1", "inhibition at 100 ppm": 29.9}, {"compound": "CC(=O)OC[C@@]12[C@@H](OC(C)=O)C[C@@H](C)[C@]3(C[C@H](c4ccoc4)OC3=O)[C@H]1CCC[C@@H]2C=O", "inhibition at 100 ppm": 41}, {"compound": "C[C@]12C[C@H](c3ccoc3)OC[C@@H]1CC[C@@]13COC(=O)[C@H]1CCC[C@@H]23", "inhibition at 100 ppm": 46}, {"compound": "C[C@@H]1[C@H](O)C[C@@]23COC(=O)C2=CC[C@H](O)[C@H]3[C@@]1(C)CCc1ccoc1", "inhibition at 100 ppm": 31.3}, {"compound": "C[C@H]1CC[C@@]23C(=O)OC(C[C@H]2[C@]12C[C@@H](c1ccoc1)OC2=O)[C@H]1O[C@]13C", "inhibition at 100 ppm": 57.9}, {"compound": "CC(=O)OC[C@@]12[C@@H](OC(C)=O)C[C@@H](C)[C@](C)(CC(=O)c3ccoc3)[C@@H]1CCC[C@]21CO1", "inhibition at 100 ppm": 58}, {"compound": "C[C@]12C[C@H](C3CCOC3)OC(=O)[C@@H]1CC[C@@]13COC(=O)[C@H]1CCC[C@@H]23", "note": "(stereo not given in full)", "inhibition at 100 ppm": 49.4}, {"compound": "C[C@@H]1CC[C@@]23COC(=O)C2=CCC[C@H]3[C@@]1(C)CCC1COC(=O)C1", "note": "(stereo not given in full)", "inhibition at 100 ppm": 62.6}, {"compound": "CC1=CC2C[C@@H]3[C@@]1(CC[C@H](C)[C@@]31C[C@@H](c3ccoc3)OC1=O)C(=O)O2", "inhibition at 100 ppm": 62.7}, {"compound": "C[C@]12C[C@H](c3ccoc3)OC(=O)[C@H]1CC[C@@]13COC(=O)[C@H]1C=CC[C@@H]23", "inhibition at 100 ppm": 47.3}, {"compound": "C[C@@H]1[C@H](O)C[C@@]23COC(=O)[C@H]2CC[C@H](O)[C@H]3[C@@]1(C)CCC1CCOC1", "note": "(stereo not given in full)", "inhibition at 100 ppm": 48.4}]}]}
